# Test results as given in patent US20180030108A1, “NOVEL VOLTAGE-DEPENDENT ION CHANNEL FUSIONS AND METHOD OF USE THEREOF” (UNIVERSITE DE BORDEAUX, priority 2015, published 2018).
# Assays:
# YFP-hTRPV1-rLuc [1] = target: T1, YFP-hTRPV1-rLuc (Homo sapiens, UniProt Q8NER1); assay: Intramolecular YFP-hTRPV1-rLuc BRET probe in HEK293T cells; format: cell-based; details: for effect on the CAPS dose response curve: cells pre-incubated with 1 μM inhibitor (FIG. 10); for effect on the capsaicin dose-response curve: pre-incubated 5 minutes before readings, 37° C. (FIG. 6)
# T1 construct: expressed in transfected cells; host or cells: HEK293T
# T1 sequence (Q8NER1 whole entry): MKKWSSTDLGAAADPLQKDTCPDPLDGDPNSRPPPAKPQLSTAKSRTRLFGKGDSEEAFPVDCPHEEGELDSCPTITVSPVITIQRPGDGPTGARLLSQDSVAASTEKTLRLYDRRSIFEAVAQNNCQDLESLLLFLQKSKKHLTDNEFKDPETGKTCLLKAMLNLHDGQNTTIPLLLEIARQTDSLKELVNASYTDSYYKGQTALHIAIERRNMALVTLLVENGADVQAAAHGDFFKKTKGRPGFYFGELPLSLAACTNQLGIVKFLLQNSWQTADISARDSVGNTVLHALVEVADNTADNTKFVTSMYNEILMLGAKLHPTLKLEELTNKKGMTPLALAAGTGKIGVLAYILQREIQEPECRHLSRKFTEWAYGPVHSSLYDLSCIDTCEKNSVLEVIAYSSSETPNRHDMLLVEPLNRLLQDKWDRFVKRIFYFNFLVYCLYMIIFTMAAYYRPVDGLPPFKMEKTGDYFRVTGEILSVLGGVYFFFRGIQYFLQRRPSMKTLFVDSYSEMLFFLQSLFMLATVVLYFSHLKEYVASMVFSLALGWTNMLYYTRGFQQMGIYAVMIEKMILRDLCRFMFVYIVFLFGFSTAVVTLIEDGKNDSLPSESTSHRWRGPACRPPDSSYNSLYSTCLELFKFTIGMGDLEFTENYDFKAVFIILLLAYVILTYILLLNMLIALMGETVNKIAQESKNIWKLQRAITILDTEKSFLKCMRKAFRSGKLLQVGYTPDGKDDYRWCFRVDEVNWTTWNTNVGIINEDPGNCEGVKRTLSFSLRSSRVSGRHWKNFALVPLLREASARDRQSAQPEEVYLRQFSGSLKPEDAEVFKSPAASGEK
# YFP-hTRPV3-rLuc = YFP-hTRPV3-rLuc (Homo sapiens, UniProt Q8NET8); details: 33° C., kinetic
# YFP-hTRPV3-rLuc, sequence (Q8NET8 whole entry): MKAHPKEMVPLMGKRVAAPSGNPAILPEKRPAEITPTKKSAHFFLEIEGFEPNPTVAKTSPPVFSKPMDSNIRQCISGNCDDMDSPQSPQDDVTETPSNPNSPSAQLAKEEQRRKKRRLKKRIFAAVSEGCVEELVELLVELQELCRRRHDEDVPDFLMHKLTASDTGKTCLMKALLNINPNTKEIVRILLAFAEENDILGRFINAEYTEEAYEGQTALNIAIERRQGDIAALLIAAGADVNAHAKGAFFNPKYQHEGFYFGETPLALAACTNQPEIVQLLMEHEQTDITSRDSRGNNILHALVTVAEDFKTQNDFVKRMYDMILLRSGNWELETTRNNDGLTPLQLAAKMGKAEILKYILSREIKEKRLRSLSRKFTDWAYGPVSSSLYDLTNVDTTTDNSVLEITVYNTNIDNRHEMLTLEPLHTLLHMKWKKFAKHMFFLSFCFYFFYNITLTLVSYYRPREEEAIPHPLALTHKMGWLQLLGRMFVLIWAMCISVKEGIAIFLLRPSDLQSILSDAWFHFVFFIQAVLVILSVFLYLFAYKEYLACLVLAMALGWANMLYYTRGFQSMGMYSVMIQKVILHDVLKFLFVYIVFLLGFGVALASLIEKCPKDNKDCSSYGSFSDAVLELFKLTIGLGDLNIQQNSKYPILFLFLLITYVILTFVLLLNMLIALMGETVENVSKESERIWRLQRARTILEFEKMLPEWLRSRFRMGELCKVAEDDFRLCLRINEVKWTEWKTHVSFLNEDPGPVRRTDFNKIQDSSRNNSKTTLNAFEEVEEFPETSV
# TRPV1-Luc/YFP-CaM = TRPV1-Luc/YFP-CaM (Homo sapiens, UniProt Q8NER1); details: for effect on the CAPS dose response curve: cells pre-incubated with 1 μM inhibitor (FIG. 10)
# TRPV1-Luc/YFP-CaM, sequence (Q8NER1 whole entry): as the sequence (Q8NER1 whole entry) above
# TRPV4-Luc/YFP-CaM = target: T2, TRPV4-Luc/YFP-CaM (Homo sapiens, UniProt Q9HBA0); assay: Intermolecular TRPV4-Luc/YFP-CaM BRET test in HEK293T cells; format: cell-based
# T2 construct: expressed in transfected cells; host or cells: HEK293T
# T2 sequence (Q9HBA0 whole entry): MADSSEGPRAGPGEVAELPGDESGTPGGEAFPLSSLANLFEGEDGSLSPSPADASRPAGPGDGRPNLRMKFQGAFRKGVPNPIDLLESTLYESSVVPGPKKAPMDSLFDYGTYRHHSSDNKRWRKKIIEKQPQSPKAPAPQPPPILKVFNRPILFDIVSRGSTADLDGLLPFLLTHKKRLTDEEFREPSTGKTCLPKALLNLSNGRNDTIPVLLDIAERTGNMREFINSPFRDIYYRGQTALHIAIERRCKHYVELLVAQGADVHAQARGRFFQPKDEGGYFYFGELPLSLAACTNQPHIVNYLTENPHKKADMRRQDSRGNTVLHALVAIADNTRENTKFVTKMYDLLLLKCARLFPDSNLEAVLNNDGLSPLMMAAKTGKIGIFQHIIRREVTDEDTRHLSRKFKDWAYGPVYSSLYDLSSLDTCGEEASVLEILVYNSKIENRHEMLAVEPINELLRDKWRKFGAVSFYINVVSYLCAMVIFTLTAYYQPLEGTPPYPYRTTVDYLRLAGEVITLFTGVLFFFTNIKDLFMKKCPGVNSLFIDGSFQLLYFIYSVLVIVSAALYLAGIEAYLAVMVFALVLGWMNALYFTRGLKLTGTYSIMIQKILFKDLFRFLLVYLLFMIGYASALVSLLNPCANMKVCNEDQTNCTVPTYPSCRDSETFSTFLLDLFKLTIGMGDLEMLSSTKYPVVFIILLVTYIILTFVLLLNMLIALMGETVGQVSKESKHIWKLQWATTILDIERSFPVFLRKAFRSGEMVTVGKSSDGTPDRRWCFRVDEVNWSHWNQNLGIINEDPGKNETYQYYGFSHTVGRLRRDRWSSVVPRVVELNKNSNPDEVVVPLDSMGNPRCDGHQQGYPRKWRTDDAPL
# Protocol: An intermolecular TRPV4 BRET probe where the RLuc was fused to the TRPV4 in C-terminal and YFP was fused to the N-terminus part of Calmodulin. Kinetic (FIG. 14A) and dose response curve (FIG. 14B) of the effect of the TRPV4 agonist GSK1016790A on HEK293T cells expressing the TRPV4-Luc/YFP-CaM constructs were obtained. In FIG. 14A, cells were activated with 1 μM of agonist at the time indicated with an arrow. In FIG. 14B, the test was done in presence (square) or absence of the TRPV inhibitor Ruthenium Red (10 μM).
# wild-type TRPV1 = target: T3, wild-type TRPV1 (Homo sapiens, UniProt Q8NER1); assay: Intracellular calcium by Fura 2-AM, HEK293T cells expressing wild-type TRPV1; format: cell-based; details: 1 μM capsaicin, 37° C.
# T3 construct: expressed in transfected cells; host or cells: HEK293T
# T3 sequence (Q8NER1 whole entry): as the sequence (Q8NER1 whole entry) above
# YFP-hTRPV1-rLuc [2] = target: T1, YFP-hTRPV1-rLuc; assay: Intracellular calcium by Fura 2-AM, HEK293T cells expressing YFP-hTRPV1-rLuc; format: cell-based; details: 1 μM capsaicin, 37° C.
# [3] = system: HEK293T cells transfected with an empty vector; assay: Intracellular calcium by Fura 2-AM, HEK293T cells transfected with an empty vector; format: cell-based, human; details: 1 μM capsaicin, 37° C.
# [4] = target: TRPV1-Luc (human; Renilla) (UniProt Q8NER1); assay: intermolecular BRET kinetics in living HEK293T cells co-expressing TRPV1-Luc and YFP-CaM, after capsaicin injection
# TRPV1-Luc (human; Renilla), sequence (Q8NER1 whole entry): as above
# [5] = HEK293T cells pre-incubated with the antagonist, heated
# [6] = HEK293T cells pre-incubated with the antagonist
# [7] = temperature rise from 25° C. to 42° C.
compound,measurement,setting,value
"c1ccc(C2(c3ccccc3)CCCO2)cc1 [2,2-Diphenyltetrahydrofuran]",temperature at which BRET signal plateaued,YFP-hTRPV1-rLuc [1]; [5],52 °C
same,ratio of net BRET as initially measured at 29.5° C.,YFP-hTRPV1-rLuc [1]; [6],0.93
"NCCOB(c1ccccc1)c1ccccc1 [2-APB, 2-Aminoethyl diphenylborinate]",evolution of the BRET signal after addition to the culture media,YFP-hTRPV3-rLuc,increase in the BRET value within seconds
CCCCCCCCC(=O)NCc1cc(OC)c(O)cc1I [6 iodo-CAPS],temperature from which BRET signal decreased,YFP-hTRPV1-rLuc [1]; [5],48 °C
same,ratio of net BRET as initially measured at 29.5° C.,YFP-hTRPV1-rLuc [1]; [6],0.28
CC(=O)Nc1nc2c(Oc3cc(-c4ccc(C(F)(F)F)cc4)ncn3)cccc2s1 [AMG517],effect on the CAPS dose response curve,YFP-hTRPV1-rLuc [1],right shift
same,effect on the capsaicin dose-response curve,YFP-hTRPV1-rLuc [1],right-shift
same,effect on the CAPS dose response curve,TRPV1-Luc/YFP-CaM,right shift
same,temperature-induced BRET increase,"TRPV1-Luc/YFP-CaM; cells preincubated with inhibitor, temperature increased from 25° C. to 50° C.",no significant BRET increase
Oc1cc2c(cc1O)CN(C(=S)NCCc1ccc(Cl)cc1)CCC2 [Capsazepine],temperature where BRET signal started to decrease,"YFP-hTRPV1-rLuc [1]; 1 μM CPZ, medium heated from 25° C. to 50° C.",47 °C
same,effect on the CAPS dose response curve,YFP-hTRPV1-rLuc [1],right shift
same,effect on the capsaicin dose-response curve,YFP-hTRPV1-rLuc [1],right-shift
same,effect on the CAPS dose response curve,TRPV1-Luc/YFP-CaM,right shift
CC(C)C[C@H](NC(=O)c1cc2ccccc2s1)C(=O)N1CCN(C(=O)[C@H](CO)NS(=O)(=O)c2ccc(Cl)cc2Cl)CC1 [GSK1016790A],EC50,"TRPV4-Luc/YFP-CaM; control condition (absence of Ruthenium Red), log value",12.9 µM
N.N.N.N.N.N.N.N.N.N.N.N.N.N.[Cl-].[Cl-].[Cl-].[Cl-].[Cl-].[Cl-].[O-2].[O-2].[Ru+3].[Ru+3].[Ru+4] [Ruthenium Red],BRET increase induced by the TRPV4 agonist GSK1016790A,TRPV4-Luc/YFP-CaM; Ruthenium Red 10 μM,No BRET increase
COc1cc(CNC(=O)CCCC/C=C/C(C)C)ccc1O [capsaicin],time constant (Tau) of BRET increase,YFP-hTRPV1-rLuc [1]; after CAPS injection,2 s
same,BRET over the basal signal following exposure,"YFP-hTRPV1-rLuc [1]; kinetic, HEK293T cells",robust increase of BRET
same,effect of temperature rise on capsaicin dose response,YFP-hTRPV1-rLuc [1]; [7],leftward shift of the power of capsaicin while the efficacy remained unchanged
same,"intracellular calcium (Fura 2, I340/I380)",wild-type TRPV1,rapid and important increase of intracellular calcium
same,"intracellular calcium (Fura 2, I340/I380)",YFP-hTRPV1-rLuc [2],rapid and important increase of intracellular calcium
same,"intracellular calcium (Fura 2, I340/I380)",[3],No calcium increase
same,time constant (Tau) of BRET increase,TRPV1-Luc/YFP-CaM; after CAPS injection,27 s
same,BRET over the basal signal following exposure,"TRPV1-Luc/YFP-CaM; kinetic, HEK293T cells",robust increase of BRET
same,effect of temperature rise on capsaicin dose response,TRPV1-Luc/YFP-CaM; [7],leftward shift of the power of capsaicin while the efficacy remained unchanged
YFP-CaM (from UniProt P0DP23 1-149),time constant of the BRET increase after capsaicin,[4],27 s
